US12110295B2, “WD40 repeat domain protein 5 (WDR5) degradation/disruption compounds and methods of use” (Icahn School of Medicine at Mount Sinai, priority 2018, dated 2024)

Target: WDR5 (Homo sapiens, UniProt P61964)
Assay: Screening of putative WDR5 degraders by Western blot in MV4;11 and/or MIAPACA2 cells
Type: cell-based
Design: After WDR5 degrader treatment, cells were collected and lysed; endogenous in cells; host or cells: MV4;11 and/or MIAPACA2
Settings: summary of screening, FIGS. 6-10
Experimental: MV4;11 cells were treated with DMSO or indicated compounds at 0.1 μM and 0.5 μM for 18 hours. […]. MIAPACA2 cells were treated with DMSO or indicated compounds at 0.5 μM and 1.0 μM for 18 hours.
MIAPACA2 cells were treated with DMSO or indicated compounds at 0.1 μM and 0.5 μM for 18 hours.
MIAPACA2 cells were treated with DMSO or indicated compounds at 0.5 μM and 1.0 μM or at 1.0 μM and 10 μM for 18 hours.
MV4;11 cells were treated with DMSO or indicated compounds at 0.1 μM and 1.0 μM for 18 hours.
WDR5 degraders were dissolved in DMSO and DMSO with no degraders was used as the control. 1×10^6 MV4;11 cells or 1×10^5 MIAPACA2 or 2×10^5 Hela cells were seeded in 2 mL medium for each well in […].
For prescreening of all the compounds, each test compound was added to the medium at indicated concentrations. After 18 h treatment, cells were collected.
After WDR5 degrader treatment, cells were collected and lysed. Total cell lysates were used for western blot. The following primary antibodies were used: WDR5 (Santa Cruz), vinculin (Cell Signaling Technology), tubulin (Cell Signaling Technology), GAPDH (Santa Cruz). Blots were imaged using fluorescence-labeled secondary antibodies on ChemiDoc™ Imaging Systems.

Row | SMILES | effective degradation of WDR5 in MV4;11 and/or MIAPACA2 cells
1 | C[C@@H]1CN(c2ccc(-c3cc(CN4CCN(CCNC(=O)CCOCCNc5cccc6c5C(=O)N(C5CCC(=O)NC5=O)C6=O)CC4)ccc3F)cc2NC(=O)c2c[nH]c(=O)cc2C(F)(F)F)C[C@H](C)N1C (stereo partly drawn) [XF078-25, N-(5′-((4-(2-(3-(2-((2-(2,6-dioxopiperidin-3-yl)-1,3-dioxoisoindolin-4-yl)amino)ethoxy)propanamido)ethyl)piperazin-1-yl)methyl)-2′-fluoro-4-((3S,5R)-3,4,5-trimethylpiperazin-1-yl)-[1,1′-biphenyl]-3-yl)-6-oxo-4-(trifluoromethyl)-1,6-dihydropyridine-3-carboxamide] | able to effectively degrade WDR5
2 | Cc1ncsc1-c1ccc(CNC(=O)[C@@H]2C[C@@H](O)CN2C(=O)[C@@H](NC(=O)CCOCCOCCOCCOCCC(=O)N2CCN(Cc3cnc(N4CC=C(c5cc(NC(=O)c6c[nH]c(=O)cc6C(F)(F)F)c(N6C[C@@H](C)N(C)[C@@H](C)C6)cc5F)CC4)nc3)CC2)C(C)(C)C)cc1 [XF078-138, N-(4-fluoro-5-(1-(5-((4-((S)-18-((2S,4R)-4-hydroxy-2-((4-(4-methylthiazol-5-yl)benzyl)carbamoyl)pyrrolidine-1-carbonyl)-19,19-dimethyl-16-oxo-4,7,10,13-tetraoxa-17-azaicosanoyl)piperazin-1-yl)methyl)pyrimidin-2-yl)-1,2,3,6-tetrahydropyridin-4-yl)-2-((3S,5R)-3,4,5-trimethylpiperazin-1-yl)phenyl)-6-oxo-4-(trifluoromethyl)-1,6-dihydropyridine-3-carboxamide] | able to effectively degrade WDR5
3 | Cc1ncsc1-c1ccc(CNC(=O)[C@@H]2C[C@@H](O)CN2C(=O)[C@@H](NC(=O)COCCOCCOCCOCCOCC(=O)N2CCN(Cc3cnc(N4CC=C(c5cc(NC(=O)c6c[nH]c(=O)cc6C(F)(F)F)c(N6C[C@@H](C)N(C)[C@@H](C)C6)cc5F)CC4)nc3)CC2)C(C)(C)C)cc1 [XF078-139, N-(4-fluoro-5-(1-(5-((4-((S)-19-((2S,4R)-4-hydroxy-2-((4-(4-methylthiazol-5-yl)benzyl)carbamoyl)pyrrolidine-1-carbonyl)-20,20-dimethyl-17-oxo-3,6,9,12,15-pentaoxa-18-azahenicosanoyl)piperazin-1-yl)methyl)pyrimidin-2-yl)-1,2,3,6-tetrahydropyridin-4-yl)-2-((3S,5R)-3,4,5-trimethylpiperazin-1-yl)phenyl)-6-oxo-4-(trifluoromethyl)-1,6-dihydropyridine-3-carboxamide] | able to effectively degrade WDR5
4 | Cc1ncsc1-c1ccc(CNC(=O)[C@@H]2C[C@@H](O)CN2C(=O)[C@@H](NC(=O)CCOCCC(=O)N2CCN(Cc3cnc(N4CC=C(c5cc(NC(=O)c6c[nH]c(=O)cc6C(F)(F)F)c(N6C[C@@H](C)N(C)[C@@H](C)C6)cc5F)CC4)nc3)CC2)C(C)(C)C)cc1 [XF078-133, N-(4-fluoro-5-(1-(5-((4-(3-(3-(((S)-1-((2S,4R)-4-hydroxy-2-((4-(4-methylthiazol-5-yl)benzyl)carbamoyl)pyrrolidin-1-yl)-3,3-dimethyl-1-oxobutan-2-yl)amino)-3-oxopropoxy)propanoyl)piperazin-1-yl)methyl)pyrimidin-2-yl)-1,2,3,6-tetrahydropyridin-4-yl)-2-((3S,5R)-3,4,5-trimethylpiperazin-1-yl)phenyl)-6-oxo-4-(trifluoromethyl)-1,6-dihydropyridine-3-carboxamide] | able to effectively degrade WDR5
5 | Cc1ncsc1-c1ccc(CNC(=O)[C@@H]2C[C@@H](O)CN2C(=O)[C@@H](NC(=O)COCCOCC(=O)N2CCN(c3ncc(-c4cc(NC(=O)c5ccc(F)cc5C(F)(F)F)c(N5C[C@@H](C)N(C)[C@@H](C)C5)cc4F)cn3)CC2)C(C)(C)C)cc1 [XF078-101, (2S,4R)-1-((S)-2-(2-(2-(2-(4-(5-(2-fluoro-5-(4-fluoro-2-(trifluoromethyl)benzamido)-4-((3S,5R)-3,4,5-trimethylpiperazin-1-yl)phenyl)pyrimidin-2-yl)piperazin-1-yl)-2-oxoethoxy)ethoxy)acetamido)-3,3-dimethylbutanoyl)-4-hydroxy-N-(4-(4-methylthiazol-5-yl)benzyl)pyrrolidine-2-carboxamide] | able to effectively degrade WDR5
6 | C[C@@H]1CN(c2cc(F)c(C3=CCN(c4ncc(CN5CCN(C(=O)CCOCCOCCOCCNc6cccc7c6C(=O)N(C6CCC(=O)NC6=O)C7=O)CC5)cn4)CC3)cc2NC(=O)c2c[nH]c(=O)cc2C(F)(F)F)C[C@H](C)N1C (stereo partly drawn) [XF078-158, N-(5-(1-(5-((4-(3-(2-(2-(2-((2-(2,6-dioxopiperidin-3-yl)-1,3-dioxoisoindolin-4-yl)amino)ethoxy)ethoxy)ethoxy)propanoyl)piperazin-1-yl)methyl)pyrimidin-2-yl)-1,2,3,6-tetrahydropyridin-4-yl)-4-fluoro-2-((3S,5R)-3,4,5-trimethylpiperazin-1-yl)phenyl)-6-oxo-4-(trifluoromethyl)-1,6-dihydropyridine-3-carboxamide] | able to effectively degrade WDR5
7 | Cc1ncsc1-c1ccc(CNC(=O)[C@@H]2C[C@@H](O)CN2C(=O)[C@@H](NC(=O)CCOCCOCCOCCOCCNC(=O)CCC(=O)N2CCN(c3ccc(-c4cc(NC(=O)c5c[nH]c(=O)cc5C(F)(F)F)c(N5C[C@@H](C)N(C)[C@@H](C)C5)cc4F)cn3)CC2)C(C)(C)C)cc1 [XF067-146, N-(4-fluoro-5-(6-(4-((S)-3-((2S,4R)-4-hydroxy-2-((4-(4-methylthiazol-5-yl)benzyl)carbamoyl)pyrrolidine-1-carbonyl)-2,2-dimethyl-5,21-dioxo-8,11,14,17-tetraoxa-4,20-diazatetracosan-24-oyl)piperazin-1-yl)pyridin-3-yl)-2-((3S,5R)-3,4,5-trimethylpiperazin-1-yl)phenyl)-6-oxo-4-(trifluoromethyl)-1,6-dihydropyridine-3-carboxamide] | able to effectively degrade WDR5
8 | Cc1ncsc1-c1ccc(CNC(=O)[C@@H]2C[C@@H](O)CN2C(=O)[C@@H](NC(=O)CCOCCOCCOCCC(=O)NCCN2CCN(Cc3ccc(F)c(-c4ccc(N5C[C@@H](C)N(C)[C@@H](C)C5)c(NC(=O)c5c[nH]c(=O)cc5C(F)(F)F)c4)c3)CC2)C(C)(C)C)cc1 [XF078-6, N-(2′-fluoro-5′-((4-((S)-18-((2S,4R)-4-hydroxy-2-((4-(4-methylthiazol-5-yl)benzyl)carbamoyl)pyrrolidine-1-carbonyl)-19,19-dimethyl-4,16-dioxo-7,10,13-trioxa-3,17-diazaicosyl)piperazin-1-yl)methyl)-4-((3S,5R)-3,4,5-trimethylpiperazin-1-yl)-[1,1′-biphenyl]-3-yl)-6-oxo-4-(trifluoromethyl)-1,6-dihydropyridine-3-carboxamide] | able to effectively degrade WDR5
9 | Cc1ncsc1-c1ccc(CNC(=O)[C@@H]2C[C@@H](O)CN2C(=O)[C@@H](NC(=O)CCCCCCCCCC(=O)N2CCN(Cc3cnc(N4CC=C(c5cc(NC(=O)c6c[nH]c(=O)cc6C(F)(F)F)c(N6C[C@@H](C)N(C)[C@@H](C)C6)cc5F)CC4)nc3)CC2)C(C)(C)C)cc1 [XF078-148, N-(4-fluoro-5-(1-(5-((4-(11-(((S)-1-((2S,4R)-4-hydroxy-2-((4-(4-methylthiazol-5-yl)benzyl)carbamoyl)pyrrolidin-1-yl)-3,3-dimethyl-1-oxobutan-2-yl)amino)-11-oxoundecanoyl)piperazin-1-yl)methyl)pyrimidin-2-yl)-1,2,3,6-tetrahydropyridin-4-yl)-2-((3S,5R)-3,4,5-trimethylpiperazin-1-yl)phenyl)-6-oxo-4-(trifluoromethyl)-1,6-dihydropyridine-3-carboxamide] | able to effectively degrade WDR5
10 | C[C@@H]1CN(c2ccc(-c3cc(CN4CCN(CCNC(=O)CCCCCCNc5cccc6c5C(=O)N(C5CCC(=O)NC5=O)C6=O)CC4)ccc3F)cc2NC(=O)c2c[nH]c(=O)cc2C(F)(F)F)C[C@H](C)N1C (stereo partly drawn) [XF078-23, N-(5′-((4-(2-(7-((2-(2,6-dioxopiperidin-3-yl)-1,3-dioxoisoindolin-4-yl)amino)heptanamido)ethyl)piperazin-1-yl)methyl)-2′-fluoro-4-((3S,5R)-3,4,5-trimethylpiperazin-1-yl)-[1,1′-biphenyl]-3-yl)-6-oxo-4-(trifluoromethyl)-1,6-dihydropyridine-3-carboxamide] | able to effectively degrade WDR5
11 | C[C@@H]1CN(c2cc(F)c(C3=CCN(c4ncc(CN5CCN(C(=O)CCNc6cccc7c6C(=O)N(C6CCC(=O)NC6=O)C7=O)CC5)cn4)CC3)cc2NC(=O)c2c[nH]c(=O)cc2C(F)(F)F)C[C@H](C)N1C (stereo partly drawn) [XF078-150, N-(5-(1-(5-((4-(3-((2-(2,6-dioxopiperidin-3-yl)-1,3-dioxoisoindolin-4-yl)amino)propanoyl)piperazin-1-yl)methyl)pyrimidin-2-yl)-1,2,3,6-tetrahydropyridin-4-yl)-4-fluoro-2-((3S,5R)-3,4,5-trimethylpiperazin-1-yl)phenyl)-6-oxo-4-(trifluoromethyl)-1,6-dihydropyridine-3-carboxamide] | able to effectively degrade WDR5
